Where a name gives a salt, the structure may show the parent alone.
Tests used:
Assay in all cases: MIC by agar dilution method
Assay type in all cases: cell-based
[1] = system: Proteus vulgaris IFO 3988; details: IFO3988, test organism (3), Trypticase soy agar, about 10^8 CFU/mℓ, overnight at 37°C
Procedure: (§1) With regard to the objective compounds as obtained in Examples 2 to 5 and 17 to 19, MICs (µg/mℓ) were measured by the method to be described below and the results are tabulated in the following table.
(§2) The MIC of a test compound was determined by the agar dilution method. Thus, 1.0 mℓ each of successively diluted,; aqueous solutions of a test compound are poured in a petri dish, respectively, and then 9.0 mℓ of Trypticase soy agar was poured, followed by mixing. A suspension (about 10^8 CFU/ mℓ) of a test organism was smeared on the mixed agar plates. After incubation overnight at 37°C, the minimum concentration of the test compound to inhibit fully the growth of the test organism is determined as the minimal inhibitory concentration (MIC).
(§3) • (1) Escherchia coli NIHJ JC-2; • (2) Serratia marcescens IFO 12648 • (3) Proteus vulgaris IFO 3988 • (4) Proteus mirabilis IFO 3849 • (5) Pseudomonas aeruginosa IFO 3455 • (6) Enterobacter cloacae IFO 12937

[2] = system: Enterobacter cloacae IFO 12937; details: IFO12937, test organism (6), Trypticase soy agar, about 10^8 CFU/mℓ, overnight at 37°C
Procedure: as §1, §2, §3

[3] = system: Proteus mirabilis IFO 3849; details: IFO3849, test organism (4), Trypticase soy agar, about 10^8 CFU/mℓ, overnight at 37°C
Procedure: as §1, §2, §3

[4] = system: Serratia marcescens IFO 12648; details: IFO12648, test organism (2), Trypticase soy agar, about 10^8 CFU/mℓ, overnight at 37°C
Procedure: as §1, §2, §3

[5] = system: Escherchia coli NIHJ JC-2; details: test organism (1); Trypticase soy agar, about 10^8 CFU/mℓ, overnight at 37°C
Procedure: as §1, §2, §3

[6] = system: Pseudomonas aeruginosa IFO 3455; details: IFO3455, test organism (5), Trypticase soy agar, about 10^8 CFU/mℓ, overnight at 37°C
Procedure: as §1, §2, §3

MIC [1] [µg/mL]	MIC [2] [µg/mL]	MIC [3] [µg/mL]	MIC [4] [µg/mL]	MIC [5] [µg/mL]	MIC [6] [µg/mL]	Structure (SMILES)
0.39	50	0.39	0.39	0.39	> 100	C[C@H]1[C@H](NC(=O)/C(=N\OCC(=O)O)c2csc(N)n2)C(=O)N1OCC(=O)O [Example 19, (3S,4S)-3-[2-(2-aminothiazol-4-yl)-(Z)-2-carboxymethoxy-iminoacetamido]-1-carboxymethoxy-4-methyl-2-azetidinone disodium salt]
< 0.1	12.5	< 0.1	0.39	0.39	6.25	C[C@H]1[C@H](NC(=O)/C(=N\OC(C)(C)C(=O)O)c2csc(N)n2)C(=O)N1OCC(=O)O [Example 3, (3S,4S)-3-[2-(2-aminothiazol-4-yl)-(Z)-2-(1-carboxy-1-methylethoxyimino)acetamido]-1-carboxymethoxy-4-methyl-2-azetidinone disodium salt]
0.39	12.5	0.39	0.39	0.39	> 100	CO/N=C(\C(=O)N[C@@H]1C(=O)N(OCC(=O)O)[C@H]1C)c1csc(N)n1 [Example 2, (3S,4S)-3-[2-aminothiazol-4-yl)-(Z)-2-methoxyiminoacetamido]-1-carboxymethoxy-4-methyl-2-azetidinone monosodium salt]

The remaining lines, values behind:

Structure (SMILES)	MIC [1] [µg/mL]	MIC [2] [µg/mL]	MIC [3] [µg/mL]	MIC [4] [µg/mL]	MIC [5] [µg/mL]	MIC [6] [µg/mL]
CC(C)(O/N=C(\C(=O)N[C@@H]1C(=O)N(OCC(=O)O)[C@H]1COC(N)=O)c1csc(N)n1)C(=O)O (relative stereo) [Example 18, trans-3-[2-(2-aminothiazol - 4-yl) - (Z) -2-(1-carboxy-1-methylethoxyimino)acetamido]-4-carbamoyloxymethyl-l-carboxymethoxy-2-azetidinone disodium salt]	< 0.1	0.78	< 0.1	0.39	0.78	12.5
CC(C)(O/N=C(\C(=O)N[C@H]1CN(OCC(=O)O)C1=O)c1csc(N)n1)C(=O)O [Example 5, (3S)-3-[2-(2-aminothiazol-4-yl)-(Z)-2-(1-carboxy-1-methylethoxyimino)acetamido]-1-carboxymethoxy-2-azetidinone disodium salt]	0.78	50	1.56	1.56	0.78	6.25
NC(=O)OC[C@H]1[C@H](NC(=O)/C(=N\OCC(=O)O)c2csc(N)n2)C(=O)N1OCC(=O)O (relative stereo) [Example 17, trans-3-[2-(2-aminothiazol-4-yl)-(Z)-2-carboxymethoxyiminoacetamido]-4-carbamoyloxymethyl-l-carboxy-methoxy-2-azetidinone disodium salt]	0.39	0.78	0.39	0.39	0.39	100
CCN1CCN(C(=O)N[C@@H](C(=O)N[C@@H]2C(=O)N(OCC(=O)O)[C@H]2C)c2ccccc2)C(=O)C1=O [Example 4, (3S,4S)-1-carboxymethoxy-3-[(D)-2-(4-ethyl-2,3-dioxopiperazine-1-carbonylamino)-2-phenylacetamido]-4-methyl-2-azetidinone monosodium salt]	1.56	> 100	12.5	6.25	12.5	25

Source: patent publication EP0135194A1, “Azetidinones and their production” (Takeda Chemical Industries, Ltd., priority 1983, dated 1985)
